Assays:
Type in all cases: cell-based
[1] = system: BHY cells (human oral squamous cell carcinoma cells); test: Proliferation assay (alamarBlue) with BHY cells; set-up: key: fluorescence relative to mean of DMSO control wells = 1.0; conditions: for Activity Range (weighted arithmetic mean AVEw of normalized fluorescence intensity, relative to DMSO basis level 1.0): 20 μM; for Activity Range (weighted arithmetic mean of normalized fluorescence intensity, relative to DMSO basis level 1.0): control at 40 μM
Source text: (§1) The antiproliferative activities of compounds falling under formula (Ia), (Ib) and (Ic), respectively, were investigated on cells or cell lines originating from a disorder of the haematopoietic system, including the myeloid cell compartment and the lymphoid cell compartment (T-cells and B-cells), the neuroendocrine system, the cervix, the breast, the ovaries, the lung, the gastrointestinal tract, and the mucosal epithelium, as well as from the skin epithelium and from the muscle. To this end, HL-60 cells, NB-4 cells, HH cells, RPMI-8402 cells, TANOUE cells, TT cells, HeLa cells, MDA-MB-231 cells, FU-OV-1 cells, LOU-NH91 cells, 23132/87 cells, CAL-27 cells, BHY cells, SCC-25 cells, A-431 cells, human primary epidermal keratinocytes (HPEK), and C2C12 cells were seeded into 96-well plates suitable for fluorescence assays (CORNING #3598) at following initial cell numbers: 1000 cells per well for HL-60; 1000 cells per well for NB-4; 5000 cells per well for HH; 5000 cells per well for RPMI-8402; 1500 cells per well for TANOUE; 9000 cells per well for TT; 2000 cells per well for HeLa; 3000 cells per well for MDA-MB-231; 3000 cells per well for FU-OV-1; 4000 cells per well for LOU-NH91; 2000 cells per well for 23132/87; 2000 cells per well for CAL-27; 1500 cells per well for BHY; 1500 cells per well for SCC-25; 700 cells per well for A-431; 1000 cells per well for HPEK; 500 cells per well for C2C12. The cells were treated with compounds at indicated final concentrations (diluted from the 1000× stock-solutions in DMSO to a final DMSO concentration of 0.1% v/v in H2O (Water For Injection, WFI, Fisherscientific #10378939)) or with the empty carrier DMSO at 0.1% v/v as control for 5 days. At day 5 after starting the treatments the cells were subjected to the alamarBlue® Proliferation Assay (Bio-Rad Serotec GmbH, BUF012B) according to the protocol of the manufacturer. The readout was taken with a multi-well plate-reader in the fluorescence mode with applying a filter for excitation at 560 nm (band width 10 nm) and for emission at 590 nm (band width 10 nm). Control treatments for growth inhibition with commercial compounds such as Methotrexate (MTREX) and Resveratrol (RES) were included on every plate. Some of the test compounds of the present invention were obtained and applied as their salts. According cases are indicated in the column “Specification” in Table 55 to Table 92 and by their sum formula in Table 93.
(§2) The assays were performed in duplicate or more replicates of independent single experiments each containing a six-fold replicate for every condition. For every individual plate, the measured fluorescence intensity values of the conditions with compound treatment were normalized against the corresponding equally weighted arithmetic mean of the fluorescence intensity values of the six DMSO treated control wells in order to obtain the relative values to a baseline level of 1.0.
(§3) Two independent outlier analyses were performed according to the methods by Peirce and Chauvenet (Ross, Journal of Engineering Technology 2003, 1-12). Outliers confirmed by at least one of the methods were excluded from the calculations but not more than one value out of six per compound within a single experiment. The weighted arithmetic mean (here abbreviated as AVEw) for each compound was calculated from the normalized values over all independent replicates of the single experiments comprising the six replicates each. The corresponding standard deviation for the weighted arithmetic mean was calculated according to the method described by Bronstein et al. (Bronstein, Semendjajew, Musiol, Müihlig, Taschenbuch der Mathematik, 5th edition 2001 (German), publisher: Verlag Harri Deutsch, Frankfurt am Main and Thun) and was combined with the Gauß' error propagation associated with the performed calculation for the normalization. The resulting standard deviation is herein referred to as “combined standard deviation”. […]

[2] = system: TT cells (human medullary thyroid carcinoma cells); test: Proliferation assay (alamarBlue) with TT cells
Source text: as §1, §2, §3

[3] = system: A-431 cells (human epidermoid squamous cell carcinoma cells); test: Proliferation assay (alamarBlue) with A-431 cells; conditions: for Activity Range (weighted arithmetic mean AVEw of normalized fluorescence intensity, relative to DMSO basis level 1.0): 20 μM; for Activity Range (weighted arithmetic mean of normalized fluorescence intensity, relative to DMSO basis level 1.0): control at 40 μM
Source text: as §1, §2, §3

[4] = system: CAL-27 cells (human tongue squamous cell carcinoma cells); test: Proliferation assay (alamarBlue) with CAL-27 cells; conditions: for Activity Range (weighted arithmetic mean AVEw of normalized fluorescence intensity, relative to DMSO basis level 1.0): 20 μM; for Activity Range (weighted arithmetic mean of normalized fluorescence intensity, relative to DMSO basis level 1.0): control at 40 μM
Source text: as §1, §2, §3

[5] = system: FU-OV-1 cells (human ovarian carcinoma cells); test: Proliferation assay (alamarBlue) with FU-OV-1 cells
Source text: as §1, §2, §3

## Oc1ccc(C=Cc2cc(O)cc(O)c2)cc1 [RES, Resveratrol]
[1]; Table 80 (compounds disclosed in PCT/EP2018/054686)
  Activity Range (weighted arithmetic mean AVEw of normalized fluorescence intensity, relative to DMSO basis level 1.0): 0.5 ± 0.1
[1]; Table 81 (compounds disclosed in PCT/EP2018/054686)
  Activity Range (weighted arithmetic mean AVEw of normalized fluorescence intensity, relative to DMSO basis level 1.0): 0.5 ± 0.1
[1]; Table 79
  Activity Range (weighted arithmetic mean of normalized fluorescence intensity, relative to DMSO basis level 1.0): 0.3 ± 0.0
[1]; Table 80
  Activity Range (weighted arithmetic mean of normalized fluorescence intensity, relative to DMSO basis level 1.0): 0.3 ± 0.0
[1]; Table 81
  Activity Range (weighted arithmetic mean of normalized fluorescence intensity, relative to DMSO basis level 1.0): 0.3 ± 0.0
[2]; compound at 20 μM, Table 65 (novel compounds)
  Activity Range: weighted arithmetic mean (AVEw) of normalized fluorescence intensity relative to DMSO basis level 1.0: 0.9 ± 0.0
[2]; compound at 20 μM, Table 66 (compounds of PCT/EP2018/054686)
  Activity Range: weighted arithmetic mean (AVEw) of normalized fluorescence intensity relative to DMSO basis level 1.0: 0.9 ± 0.0
[2]; control at 40 μM, Table 65
  Activity Range: weighted arithmetic mean (AVEw) of normalized fluorescence intensity relative to DMSO basis level 1.0: 0.7 ± 0.0
[2]; control at 40 μM, Table 66
  Activity Range: weighted arithmetic mean (AVEw) of normalized fluorescence intensity relative to DMSO basis level 1.0: 0.7 ± 0.0
[3]; Table 84 (novel compounds)
  Activity Range (weighted arithmetic mean AVEw of normalized fluorescence intensity, relative to DMSO basis level 1.0): 0.6 ± 0.0
[3]; Table 85 (compounds disclosed in PCT/EP2018/054686)
  Activity Range (weighted arithmetic mean AVEw of normalized fluorescence intensity, relative to DMSO basis level 1.0): 0.6 ± 0.0
[3]; Table 84
  Activity Range (weighted arithmetic mean of normalized fluorescence intensity, relative to DMSO basis level 1.0): 0.2 ± 0.0
[3]; Table 85
  Activity Range (weighted arithmetic mean of normalized fluorescence intensity, relative to DMSO basis level 1.0): 0.2 ± 0.0
[4]; Table 77 (novel compounds)
  Activity Range (weighted arithmetic mean AVEw of normalized fluorescence intensity, relative to DMSO basis level 1.0): 0.8 ± 0.1
[4]; Table 78 (compounds disclosed in PCT/EP2018/054686)
  Activity Range (weighted arithmetic mean AVEw of normalized fluorescence intensity, relative to DMSO basis level 1.0): 0.8 ± 0.1
[4]; Table 77
  Activity Range (weighted arithmetic mean of normalized fluorescence intensity, relative to DMSO basis level 1.0): 0.4 ± 0.3
[4]; Table 78
  Activity Range (weighted arithmetic mean of normalized fluorescence intensity, relative to DMSO basis level 1.0): 0.4 ± 0.3
[5]; compound at 20 μM, Table 71 (novel compounds)
  Activity Range: weighted arithmetic mean (AVEw) of normalized fluorescence intensity relative to DMSO basis level 1.0: 0.7 ± 0.0
[5]; compound at 20 μM, Table 72 (compounds of PCT/EP2018/054686)
  Activity Range: weighted arithmetic mean (AVEw) of normalized fluorescence intensity relative to DMSO basis level 1.0: 0.7 ± 0.0
[5]; control at 40 μM, Table 71
  Activity Range: weighted arithmetic mean (AVEw) of normalized fluorescence intensity relative to DMSO basis level 1.0: 0.4 ± 0.0
[5]; control at 40 μM, Table 72
  Activity Range: weighted arithmetic mean (AVEw) of normalized fluorescence intensity relative to DMSO basis level 1.0: 0.4 ± 0.0

From US20220354949A1, “NOVEL COMPOUNDS” (XENIOPRO GmbH, priority 2018, published 2022)
